Reference: patent US11267812B2 (Mirati Therapeutics, Inc., priority 2016, dated 2022)
Like-named read-outs stand apart in the source and are kept apart here.

Experiments:
[1] = molecular target: KRas G12C (Homo sapiens, UniProt P01116, C118S/C51S/C80L/G12C); test: KRas G12C Modification Assay (LCMS detection of covalent adduct); assay type: binding; conditions: 5 μM compound, 3 hours
Procedure: A 10 μL aliquot of each protein solution was then transferred to a 384 well microtiter plate. Initial compound stocks were generated at fifty times their desired final assay concentration in DMSO.
Exemplary compounds of Formula (I) were diluted 25-fold into K-Ras Assay Buffer to a final of two times their final concentration. A 10 μL aliquot of each diluted compound solution was then added to each of the protein solutions in the microtiter plate to initiate reaction. […] At each time point, the reactions were quenched with 20 μL of a 25 mM acetic acid solution. […] Once all reactions were quenched, the plates were heat sealed and the samples were injected into a LC/MS system for data acquisition.
Samples were injected in their liquid phase onto a C-3 reverse phase column to remove assay buffer and prepare the samples for mass spectrometer. The proteins were eluted from the column using an acetonitrile gradient and fed directly into the mass analyzer. Initial raw data analysis took place in Agilent MassHunter software immediately post data acquisition.
Raw data analysis of the intact protein was exclusively a deconvolution of the multiple charge states of each protein in solution using a maximum entropy deconvolution provided in Mass Hunter. To minimize complexity, only the data over limited mass ranges were considered for analysis, with a minimum of one Dalton mass step intervals. The heights of all masses identified during raw data analysis were exported to be further analyzed in Spotfire® data analysis software.
Final data analysis was a multistep process in the Spotfire® data analysis software package. Briefly, each protein mass was calculated as a percent of the total signal of that sample, that percentage was then normalized to the percentage of signal of the protein in the absence of reactive compounds. Those normalized signals were reported as normalized percent of control (POC). […] Key: “A”≤25% POC; “B”>25% POC≤50% POC; “C”>50% POC and ND=not determined.

[2] = test system: Phospho-ERK in NCI-H358 cells expressing KRas G12C; test: Cellular inhibition of KRas G12C by Phospho-ERK measurement in NCI-H358 cells; assay type: cell-based; conditions: Homo sapiens, read-out: IC50 (pERK(Thr202/Tyr204) normalized with GAPDH)
Outline: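 After 8–12 h attachment, NCI-H358 cells were treated with compounds for 3 h (0.5% DMSO final), fixed, methanol-permeabilized and immunostained. pERK(Thr202/Tyr204) was read by infrared imaging and normalized to GAPDH as percent of DMSO control. IC50 came from a 4-parameter fit.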

[3] = NCI-H358 cells, 3 hours compound treatment

## C=CC(=O)N1CCN(c2nc(OC[C@@H]3CCN(C)C3)nc3c2CCN(c2cccc4ccccc24)C3)CC1CC#N (stereo partly drawn) [Example 177, 2-[4-[2-[[(3R)-1-methylpyrrolidin-3-yl]methoxy]-7-(1-naphthyl)-6,8-dihydro-5H-pyrido[3,4-d]pyrimidin-4-yl]-1-prop-2-enoyl-piperazin-2-yl]acetonitrile]
[1]
  POC (normalized percent of control, KRas G12C modification): C (“C”>50% POC)
[2]; [3]
  IC50: 1 to 1000 nM

## C=CC(=O)N1CCN(c2nc(OC[C@@H]3CCCN3C)nc3c2CCN(c2ccccc2C(F)(F)F)C3)CC1CC#N (stereo partly drawn) [Example 210, 2-(1-acryloyl-4-(2-(((S)-1-methylpyrrolidin-2-yl)methoxy)-7-(2-(trifluoromethyl)phenyl)-5,6,7,8-tetrahydropyrido[3,4-d]pyrimidin-4-yl)piperazin-2-yl)acetonitrile]
[1]
  POC (normalized percent of control, KRas G12C modification): C (“C”>50% POC)
[2]; [3]
  IC50: 1 to 1000 nM

## C=CC(=O)N1CCN(c2nc(OC[C@H]3CCCN3C)nc3c2CCN(c2cccc4ccccc24)C3)CC1CC#N (stereo partly drawn) [Example 183, 2-[4-[2-[[(2R)-1-methylpyrrolidin-2-yl]methoxy]-7-(1-naphthyl)-6,8-dihydro-5H-pyrido[3,4-d]pyrimidin-4-yl]-1-prop-2-enoyl-piperazin-2-yl]acetonitrile]
[1]
  POC (normalized percent of control, KRas G12C modification): C (“C”>50% POC)
[2]; NCI-H358, 3 h
  IC50: 1 to 1000 nM

## C=CC(=O)N1CCN(c2nc(OCCCN3C[C@@H](F)[C@@H](F)C3)nc3c2CCN(c2cc(O)cc4ccccc24)C3)CC1 [Example 208, 1-(4-(2-(3-((3R,4S)-3,4-difluoropyrrolidin-1-yl)propoxy)-7-(3-hydroxynaphthalen-1-yl)-5,6,7,8-tetrahydropyrido[3,4-d]pyrimidin-4-yl)piperazin-1-yl)prop-2-en-1-one]
[1]
  POC (normalized percent of control, KRas G12C modification): C (“C”>50% POC)

## C=CC(=O)N1CCN(c2nc(OC[C@@H]3CCCN3C)nc3c2CCN(c2cccc4ccccc24)C3)CC1CC#N (stereo partly drawn) [Example 147, 2-[4-[2-[[(2S)-1-methylpyrrolidin-2-yl]methoxy]-7-(1-naphthyl)-6,8-dihydro-5H-pyrido[3,4-d]pyrimidin-4-yl]-1-prop-2-enoyl-piperazin-2-yl]acetonitrile]
[1]
  POC (normalized percent of control, KRas G12C modification): C (“C”>50% POC)
[2]; NCI-H358, 3 h
  IC50: 1 to 1000 nM

## C=CC(=O)N1CCN(c2nc(OCCCN3CC4CC4C3)nc3c2CCN(c2cc(O)cc4ccccc24)C3)CC1 (stereo not shown) [Example 206, 1-(4-(2-(3-(3-azabicyclo[3.1.0]hexan-3-yl)propoxy)-7-(3-hydroxynaphthalen-1-yl)-5,6,7,8-tetrahydropyrido[3,4-d]pyrimidin-4-yl)piperazin-1-yl)prop-2-en-1-one]
[1]
  POC (normalized percent of control, KRas G12C modification): C (“C”>50% POC)
[2]; [3]
  IC50: 1 to 1000 nM

## C=CC(=O)N1CCN(c2nc(OCCCN3CCOCC3)nc3c2CCN(c2cc(O)cc4sc(C)nc24)C3)CC1 [Example 166, 1-[4-[7-(6-hydroxy-2-methyl-1,3-benzothiazol-4-yl)-2-(3-morpholinopropoxy)-6,8-dihydro-5H-pyrido[3,4-d]pyrimidin-4-yl]piperazin-1-yl]prop-2-en-1-one]
[1]
  POC (normalized percent of control, KRas G12C modification): B (“B”>25% POC≤50% POC)

## C=CC(=O)N1CCN(c2nc(OCCN3CCC[C@@H](F)C3)nc3c2CCN(c2cc(O)cc4ccccc24)C3)CC1 [Example 207, (R)-1-(4-(2-(2-(3-fluoropiperidin-1-yl)ethoxy)-7-(3-hydroxynaphthalen-1-yl)-5,6,7,8-tetrahydropyrido[3,4-d]pyrimidin-4-yl)piperazin-1-yl)prop-2-en-1-one]
[1]
  POC (normalized percent of control, KRas G12C modification): C (“C”>50% POC)

## C=CC(=O)N1CCN(c2nc(OC[C@@H]3CCCN3C)nc3c2CCN(c2c(C(C)C)ccc4[nH]ncc24)C3)CC1 [Example 248, (S)-1-(4-(7-(5-isopropyl-1H-indazol-4-yl)-2-((1-methylpyrrolidin-2-yl)methoxy)-5,6,7,8-tetrahydropyrido[3,4-d]pyrimidin-4-yl)piperazin-1-yl)prop-2-en-1-one]
[1]
  POC (normalized percent of control, KRas G12C modification): C (“C”>50% POC)

## C=CC(=O)N1CCN(c2nc(OC[C@@H]3CCCN3C)nc3c2CCN(c2ccccc2C(C)C)C3)CC1 [Example 158, 1-[4-[7-(2-isopropylphenyl)-2-[[(2S)-1-methylpyrrolidin-2-yl]methoxy]-6,8-dihydro-5H-pyrido[3,4-d]pyrimidin-4-yl]piperazin-1-yl]prop-2-en-1-one]
[1]
  POC (normalized percent of control, KRas G12C modification): C (“C”>50% POC)

## C=CC(=O)N1CCN(c2nc(OCCN(C)C)nc3c2CCN(c2cc(O)cc4ccccc24)C3)CC1CCO (stereo not shown) [Example 171, 1-(4-(2-(2-(dimethylamino)ethoxy)-7-(3-hydroxynaphthalen-1-yl)-5,6,7,8-tetrahydropyrido[3,4-d]pyrimidin-4-yl)-2-(2-hydroxyethyl)piperazin-1-yl)prop-2-en-1-one]
[1]
  POC (normalized percent of control, KRas G12C modification): C (“C”>50% POC)

## C=CC(=O)N1CCN(c2nc(OCCCN3CCOCC3)nc3c2CCN(c2cc(O)cc4cc(C)[nH]c24)C3)CC1 [Example 167, 1-(4-(7-(5-hydroxy-2-methyl-1H-indol-7-yl)-2-(3-morpholinopropoxy)-5,6,7,8-tetrahydropyrido[3,4-d]pyrimidin-4-yl)piperazin-1-yl)prop-2-en-1-one]
[1]
  POC (normalized percent of control, KRas G12C modification): B (“B”>25% POC≤50% POC)

## C=CC(=O)N1CCN(c2nc(OCCCN3CCOCC3)nc3c2CCN(c2c(C)c(O)cc4ccccc24)C3)CC1 [Example 173, 1-(4-(7-(3-hydroxy-2-methylnaphthalen-1-yl)-2-(3-morpholinopropoxy)-5,6,7,8-tetrahydropyrido[3,4-d]pyrimidin-4-yl)piperazin-1-yl)prop-2-en-1-one]
[1]
  POC (normalized percent of control, KRas G12C modification): C (“C”>50% POC)

## C=CC(=O)N1CCN(c2nc(OCCCN3CCOCC3)nc3c2CCN(c2c(F)c(O)cc4ccccc24)C3)CC1 [Example 165, 1-[4-[7-(2-fluoro-3-hydroxy-1-naphthyl)-2-(3-morpholinopropoxy)-6,8-dihydro-5H-pyrido[3,4-d]pyrimidin-4-yl]piperazin-1-yl]prop-2-en-1-one]
[1]
  POC (normalized percent of control, KRas G12C modification): C (“C”>50% POC)

## C=CC(=O)N1CCN(c2nc(OCCN3CCCC[C@@H]3C)nc3c2CCN(c2cc(O)cc4ccccc24)C3)CC1 [Example 88, (S)-1-(4-(7-(3-hydroxynaphthalen-1-yl)-2-(2-(2-methylpiperidin-1-yl)ethoxy)-5,6,7,8-tetrahydropyrido[3,4-d]pyrimidin-4-yl)piperazin-1-yl)prop-2-en-1-one]
[2]; [3]
  IC50: 1 to 1000 nM

## C=CC(=O)N1CCN(c2nc(OCCCN3C[C@@H]4C[C@H]3CO4)nc3c2CCN(c2cccc4ccccc24)C3)CC1CC#N (stereo partly drawn) [Example 154, 2-[4-[7-(1-naphthyl)-2-[3-[(1S,4S)-2-oxa-5-azabicyclo[2.2.1]heptan-5-yl]propoxy]-6,8-dihydro-5H-pyrido[3,4-d]pyrimidin-4-yl]-1-prop-2-enoyl-piperazin-2-yl]acetonitrile]
[2]; [3]
  IC50: 1 to 1000 nM

## C=CC(=O)N1CCN(c2nc(OCCCN3CCOCC3)nc3c2CCN(c2cc(O)cc4cccnc24)C3)CC1 [Example 205, 1-(4-(7-(6-hydroxyquinolin-8-yl)-2-(3-morpholinopropoxy)-5,6,7,8-tetrahydropyrido[3,4-d]pyrimidin-4-yl)piperazin-1-yl)prop-2-en-1-one]
[1]
  POC (normalized percent of control, KRas G12C modification): C (“C”>50% POC)

## C=CC(=O)N1CCN(c2nc(O[C@@H]3CCCN(C)C3)nc3c2CCN(c2cc(O)cc4ccccc24)C3)CC1 [Example 67, (R)-1-(4-(7-(3-hydroxynaphthalen-1-yl)-2-((1-methylpiperidin-3-yl)oxy)-5,6,7,8-tetrahydropyrido[3,4-d]pyrimidin-4-yl)piperazin-1-yl)prop-2-en-1-one]
[2]; [3]
  IC50: 1 to 1000 nM

## C=CC(=O)N1CCN(c2nc(OC[C@@H]3CCCN3C(C)C)nc3c2CCN(c2cc(O)cc4ccccc24)C3)CC1 [Example 145, 1-[4-[7-(3-hydroxy-1-naphthyl)-2-[[(2S)-1-isopropylpyrrolidin-2-yl]methoxy]-6,8-dihydro-5H-pyrido[3,4-d]pyrimidin-4-yl]piperazin-1-yl]prop-2-en-1-one]
[2]; [3]
  IC50: 1 to 1000 nM

## C=CC(=O)N1CCN(c2nc(OCC3CCN(C)C3)nc3c2CCN(c2cc(O)cc4ccccc24)C3)CC1 (stereo not shown) [Example 89, 1-(4-(7-(3-hydroxynaphthalen-1-yl)-2-((1-methylpyrrolidin-3-yl)methoxy)-5,6,7,8-tetrahydropyrido[3,4-d]pyrimidin-4-yl)piperazin-1-yl)prop-2-en-1-one]
[2]; [3]
  IC50: 1 to 1000 nM
